Legend:
[1] = tested on: PTGES, ALOX5, LTC4S, LTA4H and ALOX5AP mRNA in liver; experiment: Liver oxylipin synthase mRNAs by qPCR in chemotherapy-induced senescence model; assay type: in vivo, p16-3MR mice; conditions: FIG. 3B
Method: A. IMR-90 cells were proliferative in 10% serum, made quiescent by incubation for 3 days in 0.2% serum, or made senescent by treatment with 10 Gy X-rays (IR) or ethidium bromide to induce mitochondrial-dysfunction induced senescence (MiDAS). Lipids were extracted from proliferating (PRO—10%), quiescent (QUI—0.2%), IR-induced senescent (SEN(IR)—10% or 0.2% serum), or mitochondrial dysfunction-associated senescent (MiDAS-0.2%) cells and analyzed by liquid chromatography combined with mass spectrometry (LC-MS). Putative oxylipins (A) were detected in control and senescent cells. B. p16-3MR mice were given a single dose (10 mg/kg) of doxorubicin (DOXO) or phosphate-buffered saline (PBS) by intraperitoneal (i.p.) injection. After 5 days, mice were given GCV (25 mg/kg) or vehicle by i.p. injection for 5 consecutive days. Livers were harvested on day 10 and analyzed for oxylipin synthase mRNAs by qPCR. Heat maps indicate averages of at least 5 mice (*=p<0.05, 1-way ANOVA). C. C57BL/6 mice were aged for 6 (young) or 24 (old) months. Kidneys were harvested from mice and analyzed for oxylipin synthase RNA levels by qPCR.
Briefly, mice were treated with either control (phosphate buffered saline, (PBS)), doxorubicin (DOXO), or the combination of DOXO and ganciclovir (GCV). GCV is known to eliminate senescent cells in the liver at the concentrations administered, i.e., 25 mg/kg.

senescent cells = experiment: Ferroptosis induction in senescent relative to non-senescent cells (general statement); assay type: cell-based; conditions: general statement in description
Excerpt: While many of these oxylipins can drive pathology, such as in the case of pulmonary fibrosis, this may also result in a vulnerability that allows them to be targeted for elimination. Among the oxylipin synthesis enzymes elevated during senescence are arachidonate 5-, 12-, 15-, and 15B-lipoxygenases (ALOX5, 12, 15, and 15B), as well as ALOX5 activating protein (ALOX5AP). These lipoxygenases produce oxylipins, such as the leukotrienes, by acting on free arachidonic acid inside of the cell. However, these enzymes may also peroxidize arachidonic acid that is bound (esterified) in the plasma membrane. Lipid peroxides then react with labile iron in the cytosol via Fenton reaction to result in an exponential chain reaction of lipid peroxidation, ultimately resulting in a form of cell death known as “ferroptosis”. […] Other compounds, such as artemisinin and its derivatives interact with labile iron to increase lipid peroxidation. Since senescent cells also show elevated levels of labile iron, in addition to lipoxygenases, these cells are especially sensitive to induction of ferroptosis. […] As used herein, “senolytic” refers to the property of a molecule, compound, or composition to selectively kill senescent cells. Thus, ML-210, RSL3, FIN56, erastin, artemisinin, and related molecules are useful for the treatment of chronic degenerative diseases that are characterized by cellular senescence.

[2] = tested on: senescent cells induced with 10 Gy of IR; experiment: Cell survival (CCK8) of IR-induced senescent cells vs non-senescent controls; assay type: cell-based
Method: (§1) A. RNA levels of GPX4 in cells induced to senesce by ionizing radiation (IR), mitochondrial dysfunction (MiDAS), or lentiviral overexpression of […] [SEN(RAS)]. Non-senescent cells induced by either mock treatment (NS) or empty lentiviral vector (Vector) served as controls. RNA levels measure by quantitative RT-PCR and normalized to actin. B—C. Cells were induced to senesce by 24 h of treatment with 250 nM doxorubicin [SEN(DOXO)] or control [NS (DMSO)], and 10 days later were given the indicated drug doses for 24 h. D. Cells were induced to senesce with 10 Gy of IR and 10 days later given the indicated drug doses for 24 h. E-F. Cells were induced to senesce with 10 Gy of IR and 10 days later given the indicated drug doses for 72 h. Cell survival was then measured by colorimetric assay (CCK8). *=p<0.01
Preliminary data: Senescent cells appear primed to undergo ferroptosis. Not only do they elevate ALOX enzymes (FIG. 1A) and PUFA levels (FIG. 1B), but the lipid hydroxide products of these enzymes are elevated (FIG. 1C), as are byproducts of lipid peroxidation, (e.g. 4-HNE and 4-HDDE (FIG. 1D)). Lipid peroxidation-sensitive probes, e.g., C11-BODIPY, indicate increased lipid peroxidation during senescence. Furthermore, senescent cells accumulate iron in their cytosol. […]

[3] = tested on: IR-induced senescent [SEN(IR)] cells; experiment: Rescue of RSL3-induced ferroptosis in IR-induced senescent cells (CCK8 survival); assay type: cell-based
Method: Non-senescent (NS: mock irradiated) or IR-induced senescent [SEN(IR)] cells were treated 10 days after irradiation with […] RSL3 and the indicated ferroptosis antagonist, followed by cell survival measurement by CCK8 assay. A. Cells were treated with ferrostatin-1 (FSN1—1 μM) at the same time as RSL3. B. Cells were given the ALOX5 and ALOX15 inhibitor zileuton (Zil—50 μM) at the same time as RSL3. C. Cells were given iron chelators deferoxamine (DFX—25 μM) or salicylaldehyde isonicotinoyl hydrazine (SIH—100 μM) at the same time as RSL3. D. Cells were given ACSL4 inhibitors rosiglitazone (ROSI—100 μM) or PRGL493 (PRGL—100 μM) for 72 h prior to RSL3. ***=p<0.001
The inventor next sought to further elucidate the potential mechanisms for induction of ferroptosis in senescent cells by the disclosed senolytic drugs. The inventor rescued ferroptosis in senescent cells induced by contacting the cells with RSL3 and ferrostatin-1 (FSN1), which inhibits lipid peroxidation (FIG. 6A), zileuton (5- and 15-lipoxygenase inhibitor), which protects cells from lipoxygenase-induced membrane peroxidation (FIG. 6B), iron chelators deferoxamine or salicylaldehyde isonicotinoyl hydrazine (FIG. 6C), and ACSL4 inhibitors rosiglitazone or PRGL493 (FIG. 6D).

[4] = tested on: senescent cells [SEN(DOXO)]; experiment: Cell survival (CCK8) of doxorubicin-induced senescent cells vs non-senescent controls; assay type: cell-based; conditions: SEN(DOXO) (250 nM doxorubicin 24 h) vs NS (DMSO); drug given 10 days later for 24 h; FIG. 5B-C
Method: as §1, with “*=p<0.01 Preliminary data: Senescent cells appear primed to undergo ferroptosis. Not only do they elevate ALOX enzymes (FIG. 1A) and PUFA levels (FIG. 1B), but the lipid hydroxide products of these enzymes are elevated (FIG. 1C), as are byproducts of lipid peroxidation, (e.g. 4-HNE and 4-HDDE (FIG. 1D)). Lipid peroxidation-sensitive probes, e.g., C11-BODIPY, indicate increased lipid peroxidation during senescence. Furthermore, senescent cells accumulate iron in their cytosol. […]” for “*=p<0.01”

[5] = given at the same time as 0.1 mM RSL3, FSN1 1 μM, Zil 50 μM, DFX 25 μM, SIH 100 μM, FIG. 6A-C

Molecule	selective induction of ferroptosis in senescent cells relative to non-senescent cells (senescent cells)	rescue of RSL3-induced ferroptosis in senescent cells (cell survival, CCK8) [3, 5]	other results
COc1cccc2c1C(=O)c1c(O)c3c(c(O)c1C2=O)C[C@@](O)(C(=O)CO)C[C@@H]3O[C@H]1C[C@H](N)[C@H](O)[C@H](C)O1 [DOXO, doxorubicin]			liver mRNA levels of PTGES, ALOX5, LTC4S, LTA4H and ALOX5AP ([1]; single dose 10 mg/kg i.p. vs PBS, livers harvested day 10): DOXO-dependent increase in the mRNA levels
O=S(=O)(NC1CCCCC1)c1ccc2c(c1)C(=NO)c1cc(S(=O)(=O)NC3CCCCC3)ccc1-2 [FIN56]	selectively induces ferroptosis in senescent cells relative to non-senescent cells		
Nc1nc(O)c2ncn(COC(CO)CO)c2n1 [GCV, ganciclovir]			effect on DOXO-dependent increase of liver mRNA levels of PTGES, ALOX5, LTC4S, LTA4H and ALOX5AP ([1]; 25 mg/kg i.p. for 5 consecutive days, 5 days after DOXO): abrogates the DOXO-dependent increase in the mRNA levels
Cc1onc(C(=O)N2CCN(C(c3ccc(Cl)cc3)c3ccc(Cl)cc3)CC2)c1[N+](=O)[O-] [ML-210]	selectively induces ferroptosis in senescent cells relative to non-senescent cells		selective induction of ferroptosis in senescent cells (cell survival, CCK8) ([2]; 10 Gy IR senescent vs non-senescent (NS) cells, drug given 10 days later for 24 h, FIG. 5D): selectively induced ferroptosis in senescent cells and not control non-senescent (NS) cells
CC(=O)NC1=NC(c2cn(-c3ccccc3)nc2-c2ccc(C)o2)n2c(nc3ccccc32)N1 (stereo not drawn) [PRGL493]			rescue of RSL3-induced ferroptosis in senescent cells (cell survival, CCK8) ([3]; given for 72 h prior to 0.1 mM RSL3, ROSI 100 μM, PRGL 100 μM, FIG. 6D): rescued induction of ferroptosis in senescent cells
COC(=O)c1ccc([C@H]2c3[nH]c4ccccc4c3CC(C(=O)OC)N2C(=O)CCl)cc1 (stereo partly drawn) [RSL3]	selectively induces ferroptosis in senescent cells relative to non-senescent cells		selective killing of senescent cells (cell survival, CCK8) [4]: selectively killed senescent cells
C[C@@H]1CC[C@H]2[C@@H](C)C(=O)O[C@@H]3O[C@@]4(C)CC[C@@H]1[C@]32OO4 [artemisinin]			cell death in senescent cells vs control cells (cell survival, CCK8) ([2]; 10 Gy IR, drug given 10 days later for 72 h, several concentrations, FIG. 5E-5F): induced significantly more cell death in senescent cells than control cells
CCOC(=O)c1ccc(NC2CCCCC2)c(N)c1 [ferrostatin-1]		rescued induction of ferroptosis in senescent cells	
CC(c1cc2ccccc2s1)N(O)C(N)=O (stereo not drawn) [zileuton]		rescued induction of ferroptosis in senescent cells	
salicylaldehyde isonicotinoyl hydrazine		rescued induction of ferroptosis in senescent cells	

Reference: patent US20250064775A1, “SELECTIVE ELIMINATION OF SENESCENT CELLS BY FERROPTOSIS INDUCTION” (Trustees of Tufts College, priority 2022, published 2025)
